Results: PubChem BioAssay (NCI)
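Dose response: 5 concentrations. Exposure: 48 h. Format: 96-well plates. Endpoint: linear interpolation; highest concentration if not reached. At the GI50, growth is halved. TGI marks complete inhibition of growth.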

How the values were obtained:
Test in all cases: NCI-60 cell line screen, 48 h
[1] = test system: MDA-MB-231 breast
[2] = test system: SK-MEL-5 melanoma
[3] = test system: T-47D breast
[4] = test system: UACC-62 melanoma
[5] = test system: SF-295 CNS
[6] = test system: HL-60(TB) leukemia
[7] = test system: U251 CNS
[8] = test system: HCT-116 colon
[9] = test system: UO-31 renal
[10] = test system: DU-145 prostate
[11] = test system: HCC-2998 colon
[12] = test system: NCI-H23 lung
[13] = test system: A549 NSCLC
[14] = test system: SF-268 CNS
[15] = test system: SNB-75 CNS
[16] = test system: HOP-62 NSCLC
[17] = test system: NCI-H522 lung
[18] = test system: TK-10 renal
[19] = test system: OVCAR-4 ovarian
[20] = test system: RXF 393 renal
[21] = test system: MCF7 breast
[22] = test system: CCRF-CEM leukemia
[23] = test system: OVCAR-5 ovarian
[24] = test system: OVCAR-8 ovarian
[25] = test system: ACHN renal
[26] = test system: PC-3 prostate
[27] = test system: 786-0 renal
[28] = test system: MOLT-4 leukemia
[29] = test system: M14 melanoma
[30] = test system: IGROV1 ovarian
[31] = test system: HT29 colon
[32] = test system: RPMI-8226 leukemia
[33] = test system: CAKI-1 renal
[34] = test system: NCI-H460 lung
[35] = test system: MDA-MB-435
[36] = test system: K-562 leukemia
[37] = test system: SF-539 CNS
[38] = test system: BT-549 breast
[39] = test system: COLO 205 colon
[40] = test system: SW-620 colon
[41] = test system: NCI/ADR-RES ovarian
[42] = test system: MALME-3M melanoma
[43] = test system: KM12 colon
[44] = test system: SR leukemia
[45] = test system: LOX IMVI melanoma
[46] = test system: HS 578T breast
[47] = test system: NCI-H226 lung
[48] = test system: SNB-19 CNS
[49] = test system: SN12C renal
[50] = test system: OVCAR-3 ovarian
[51] = test system: A498 renal
[52] = test system: UACC-257 melanoma
[53] = test system: HCT-15 colon
[54] = test system: SK-OV-3 ovarian
[55] = test system: EKVX NSCLC
[56] = test system: HOP-92 NSCLC
[57] = test system: SK-MEL-28 melanoma

CCCCCCCCCCSC(=N)N (tested in a mixture with another compound)
GI50 [1]: 1.8 µM | TGI [1]: 4.22 µM | GI50 [2]: 2.83 µM | TGI [2]: 8.55 µM | GI50 [3]: 1.86 µM | TGI [3]: 4.95 µM | GI50 [4]: 1.95 µM | TGI [4]: 3.96 µM | GI50 [5]: 3.79 µM | TGI [5]: 14.3 µM | GI50 [6]: 1.85 µM | TGI [6]: 4.19 µM | GI50 [7]: 1.77 µM | TGI [7]: 3.62 µM | GI50 [8]: 2.6 µM | TGI [8]: 9.55 µM | GI50 [9]: 3.02 µM | TGI [9]: 13 µM | GI50 [10]: 4.47 µM | TGI [10]: 16.1 µM | GI50 [11]: 1.6 µM | TGI [11]: 3.05 µM | GI50 [12]: 11.1 µM | TGI [12]: 25.9 µM | GI50 [13]: 4.36 µM | TGI [13]: 18 µM | GI50 [14]: 4.01 µM | TGI [14]: 17.6 µM | GI50 [15]: 1.42 µM | TGI [15]: 3.43 µM | GI50 [16]: 11.8 µM | TGI [16]: 27.3 µM | GI50 [17]: 1.91 µM | TGI [17]: 4.68 µM | GI50 [18]: 1.95 µM | TGI [18]: 4.19 µM | GI50 [19]: 3.44 µM | TGI [19]: 16 µM | GI50 [20]: 2.55 µM | TGI [20]: 7.23 µM | GI50 [21]: 2.75 µM | TGI [21]: 10.4 µM | GI50 [22]: 3.65 µM | TGI [22]: 17 µM | GI50 [23]: 13.1 µM | TGI [23]: 32.7 µM | GI50 [24]: 3.05 µM | TGI [24]: 9.64 µM | GI50 [25]: 2.86 µM | TGI [25]: 10.1 µM | GI50 [26]: 5.01 µM | TGI [26]: 20.1 µM | GI50 [27]: 1.91 µM | TGI [27]: 4.54 µM | GI50 [28]: 1.85 µM | TGI [28]: 5.51 µM | GI50 [29]: 1.87 µM | TGI [29]: 3.85 µM | GI50 [30]: 5.2 µM | TGI [30]: 18.9 µM | GI50 [31]: 1.78 µM | TGI [31]: 4.34 µM | GI50 [32]: 2.53 µM | TGI [32]: 6.31 µM | GI50 [33]: 2.03 µM | TGI [33]: 5.04 µM | GI50 [34]: 2.64 µM | TGI [34]: 6.28 µM | GI50 [35]: 1.7 µM | TGI [35]: 3.27 µM | GI50 [36]: 1.72 µM | TGI [36]: 5.88 µM | GI50 [37]: 10.9 µM | TGI [37]: 23.8 µM | GI50 [38]: 6.65 µM | TGI [38]: 25.9 µM | GI50 [39]: 1.86 µM | TGI [39]: 3.78 µM | GI50 [40]: 2.1 µM | TGI [40]: 4.7 µM | GI50 [41]: 6.29 µM | TGI [41]: 25.6 µM | GI50 [42]: 2.24 µM | TGI [42]: 5.07 µM | GI50 [43]: 1.97 µM | TGI [43]: 4.12 µM | GI50 [44]: 2.34 µM | TGI [44]: 6.9 µM | GI50 [45]: 2.72 µM | TGI [45]: 11.1 µM | GI50 [46]: 8.03 µM | TGI [46]: 29.5 µM | GI50 [47]: 18.3 µM | TGI [47]: 40.1 µM | GI50 [48]: 4.28 µM | TGI [48]: 18.2 µM | GI50 [49]: 6.28 µM | TGI [49]: 21.6 µM | GI50 [50]: 2.36 µM | TGI [50]: 6.28 µM | GI50 [51]: 6.55 µM | TGI [51]: 19.7 µM | GI50 [52]: 2.46 µM | TGI [52]: 5.93 µM | GI50 [53]: 2.12 µM | TGI [53]: 5.06 µM | GI50 [54]: 11.8 µM | TGI [54]: 24.8 µM | GI50 [55]: 6.89 µM | TGI [55]: 23.7 µM | GI50 [56]: 2.66 µM | TGI [56]: 8.83 µM | GI50 [57]: 2.65 µM | TGI [57]: 8.15 µM
